For this assay, the system named is BDF1 mice, P388 leukemia ip, median survival T/C. Nature of the assay: NCI In Vivo Anticancer Drug Screen. Data for tumor model P388 Leukemia (intraperitoneal) in B6D2F1 (BDF1) mice. To be noted: endpoint: median survival time, higher = longer survival. In a few lines:
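Transplantable tumour in mice; compound vs vehicle dosing; survival scored; ratio of treated to control reported.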

[1] abbreviates: dose: 50.0 mg/kg/injection, schedule: Q01DX009 (ip), vehicle: saline.
Setting [2] is: dose: 50.0 mg/kg/injection, schedule: Q04DX003 (ip), vehicle: saline.
The mark [3] stands for this setting: dose: 100.0 mg/kg/injection, schedule: Q01DX009 (ip), vehicle: saline.
Where [4] appears, read: dose: 100.0 mg/kg/injection, schedule: Q04DX003 (ip), vehicle: saline.
Where [5] appears, read: dose: 200.0 mg/kg/injection, schedule: Q04DX003 (ip), vehicle: saline.
Setting [6] is: dose: 100.0 mg/kg/injection, schedule: Q01DX009 (ip), vehicle: saline with Tween-80.
The mark [7] stands for this setting: dose: 200.0 mg/kg/injection, schedule: Q01DX009 (ip), vehicle: saline with Tween-80.
Where [8] appears, read: dose: 100.0 mg/kg/injection, schedule: Q04DX003 (ip), vehicle: water.
Setting [9] is: dose: 50.0 mg/kg/injection, schedule: Q01DX009 (ip), vehicle: Klucel (hydroxypropylcellulose) (HPC).
[10] abbreviates: dose: 100.0 mg/kg/injection, schedule: Q01DX009 (ip), vehicle: Klucel (hydroxypropylcellulose) (HPC).
[11] abbreviates: dose: 25.0 mg/kg/injection, schedule: Q01DX009 (ip), vehicle: Klucel (hydroxypropylcellulose) (HPC).
[12] abbreviates: dose: 50.0 mg/kg/injection, schedule: Q01DX010 (ip), vehicle: carboxymethylcellulose (CMC).
The mark [13] stands for this setting: dose: 100.0 mg/kg/injection, schedule: Q04DX003 (ip), vehicle: Klucel (hydroxypropylcellulose) (HPC).
The mark [14] stands for this setting: dose: 200.0 mg/kg/injection, schedule: Q01DX009 (ip), vehicle: saline.
Where [15] appears, read: dose: 50.0 mg/kg/injection, schedule: Q01DX009 (ip), vehicle: saline with Tween-80.
[16] abbreviates: dose: 25.0 mg/kg/injection, schedule: Q04DX003 (ip), vehicle: water.
The mark [17] stands for this setting: dose: 50.0 mg/kg/injection, schedule: Q04DX003 (ip), vehicle: water.
Setting [18] is: dose: 25.0 mg/kg/injection, schedule: Q01DX009 (ip), vehicle: saline with Tween-80.

Values joined by “and” are separate entries in the source; they are usually repeats but may differ in a detail not shown here. Identical values can stand only once. Toxic doses and inconclusive results are not listed.

On to `CCC1=C(c2ccc(OC)cc2)CCC(C(=O)O)C1C` (centres undefined), for which the T/C is 90 % of control (dose: 3.0 mg/kg/injection, schedule: Q01DX010 (sc), vehicle: steriod suspending solution); 105 % of control (dose: 6.0 mg/kg/injection, schedule: Q01DX010 (sc), vehicle: steriod suspending solution); 100 % of control (dose: 12.0 mg/kg/injection, schedule: Q01DX010 (sc), vehicle: steriod suspending solution); 95 % of control (dose: 24.0 mg/kg/injection, schedule: Q01DX010 (sc), vehicle: steriod suspending solution); 100 % of control (dose: 48.0 mg/kg/injection, schedule: Q01DX010 (sc), vehicle: steriod suspending solution); 110 % of control (dose: 96.0 mg/kg/injection, schedule: Q01DX010 (sc), vehicle: steriod suspending solution). Under “dose: 192.0 mg/kg/injection, schedule: Q01DX010 (sc), vehicle: steriod suspending solution”, the T/C was 105 % of control.
For the compound `CC(=O)NC(Cc1ccc(N(CCCl)CCCl)cc1)C(=O)NC(CC(C)C)C(=O)O` (centres undefined), the T/C (dose: 20.0 mg/kg/injection, schedule: Q04DX003 (ip), vehicle: other) was 152 % of control; the T/C (dose: 40.0 mg/kg/injection, schedule: Q04DX003 (ip), vehicle: other) is 203 % of control; the T/C (dose: 80.0 mg/kg/injection, schedule: Q04DX003 (ip), vehicle: other) is 239 % of control; the T/C (dose: 160.0 mg/kg/injection, schedule: Q04DX003 (ip), vehicle: other) was 104 % of control.
Regarding `COc1cc2ccc3cc[n+](C)cc3c2cc1OC`, the T/C was 95 % of control (dose: 25.0 mg/kg/injection, schedule: Q01DX009 (ip), vehicle: saline); 104 % of control (dose: 25.0 mg/kg/injection, schedule: Q04DX003 (ip), vehicle: saline); 96 % of control and 100 % of control under setting [1]; 95 % of control under setting [2]; 86 % of control under setting [3]; 95 % of control and 104 % of control under setting [4]. In addition, the T/C under setting [5] is 90 % of control.
Regarding `CCOC(=O)c1ccc(N)c(C(O)(C(F)(F)F)C(F)(F)F)c1`, the T/C reads like this: under setting [6], 90 % of control; under setting [7], 100 % of control; (dose: 400.0 mg/kg/injection, schedule: Q01DX009 (ip), vehicle: saline with Tween-80) 104 % of control.
For the compound `CS(=O)(=O)c1ncc2cnccn12`, under setting [8], the T/C is 110 % of control.
For the compound `O=[N+]([O-])c1cc([N+](=O)[O-])c(Nc2cccc3ccccc23)c([N+](=O)[O-])c1`, the T/C reads like this: under setting [9], 100 % of control; under setting [10], 100 % of control; (dose: 200.0 mg/kg/injection, schedule: Q01DX009 (ip), vehicle: Klucel (hydroxypropylcellulose) (HPC)) 103 % of control.
With `S=C(NNc1ccccc1)Nc1ccccc1`, the T/C under setting [11] is 106 % of control, the T/C under setting [9] was 101 % of control and the T/C under setting [10] was 96 % of control.
On to `COc1ccc(N=O)c(O)c1`, for which the T/C runs as follows: under setting [11], 100 % of control and 109 % of control; (dose: 25.0 mg/kg/injection, schedule: Q01DX010 (ip), vehicle: carboxymethylcellulose (CMC)) 110 % of control; (dose: 25.0 mg/kg/injection, schedule: Q04DX003 (ip), vehicle: Klucel (hydroxypropylcellulose) (HPC)) 115 % of control; under setting [9], 100 % of control and 109 % of control; under setting [12], 115 % of control; (dose: 50.0 mg/kg/injection, schedule: Q04DX003 (ip), vehicle: Klucel (hydroxypropylcellulose) (HPC)) 110 % of control. Also, the T/C was 113 % of control and 118 % of control under setting [10]; 110 % of control under setting [13].
In the case of `COB(C1CCCCC1)C1CCCCC1`, the T/C is 113 % of control (dose: 75.0 mg/kg/injection, schedule: Q01DX001 (ip), vehicle: saline); 104 % of control (dose: 150.0 mg/kg/injection, schedule: Q01DX001 (ip), vehicle: saline); 95 % of control (dose: 300.0 mg/kg/injection, schedule: Q01DX001 (ip), vehicle: saline).
Turning to `O=C(Nc1cc(Cl)cc(Cl)c1)C(Cl)Cl`, the T/C by setting is: under setting [12], 95 % of control; (dose: 100.0 mg/kg/injection, schedule: Q01DX010 (ip), vehicle: carboxymethylcellulose (CMC)) 110 % of control; (dose: 200.0 mg/kg/injection, schedule: Q01DX010 (ip), vehicle: carboxymethylcellulose (CMC)) 105 % of control.
On to `Clc1nc(Cl)nc(-c2cccn2-c2ccccc2)n1`, for which the T/C was 100 % of control under setting [11]; 100 % of control under setting [9]; 104 % of control under setting [10]; 105 % of control (dose: 150.0 mg/kg/injection, schedule: Q01DX009 (ip), vehicle: Klucel (hydroxypropylcellulose) (HPC)); 95 % of control (dose: 225.0 mg/kg/injection, schedule: Q01DX009 (ip), vehicle: Klucel (hydroxypropylcellulose) (HPC)).
In the case of `CC#CCOCC(O)CCl` (centres undefined), the T/C by setting is: under setting [2], 115 % of control; under setting [3], 108 % of control; under setting [4], 95 % of control; under setting [14], 116 % of control; under setting [5], 90 % of control; (dose: 400.0 mg/kg/injection, schedule: Q04DX003 (ip), vehicle: saline) 112 % of control.
`Cc1cc(Cl)ccc1NC(=O)c1ccccc1C(=O)O`: the T/C was 91 % of control under setting [13]; 91 % of control (dose: 200.0 mg/kg/injection, schedule: Q04DX003 (ip), vehicle: Klucel (hydroxypropylcellulose) (HPC)); 87 % of control (dose: 400.0 mg/kg/injection, schedule: Q04DX003 (ip), vehicle: Klucel (hydroxypropylcellulose) (HPC)).
As to `C/C(=N\N(C)C(=S)Nc1ccccc1)c1ccccn1`, the T/C is 95 % of control under setting [15], 106 % of control under setting [6] and 98 % of control under setting [7].
Consider `OCC(O)C(O)C(O)C(O)C=Nc1ccc(/C=C/c2ccnc3ccccc23)cc1` (centres undefined), for which the T/C under setting [15] is 109 % of control, the T/C under setting [6] was 105 % of control and the T/C under setting [7] was 112 % of control.
For `C=CC[N+](CC=C)(CC=C)CCC[N+](CC=C)(CC=C)CC=C`, the T/C reads like this: under setting [16], 107 % of control; under setting [17], 88 % of control.
On to `Brc1ccc2c(c1)-c1ccccc1C1=NCCN12`, for which the T/C is 95 % of control (dose: 2.5 mg/kg/injection, schedule: Q01DX009 (ip), vehicle: Klucel (hydroxypropylcellulose) (HPC)); 104 % of control (dose: 5.0 mg/kg/injection, schedule: Q01DX009 (ip), vehicle: Klucel (hydroxypropylcellulose) (HPC)); 100 % of control (dose: 10.0 mg/kg/injection, schedule: Q01DX009 (ip), vehicle: Klucel (hydroxypropylcellulose) (HPC)); 95 % of control (dose: 20.0 mg/kg/injection, schedule: Q01DX009 (ip), vehicle: Klucel (hydroxypropylcellulose) (HPC)).
With `O=C(Oc1ccc([N+](=O)[O-])cc1)c1ccc(C[n+]2ccccc2)cc1`, the T/C is 91 % of control under setting [15]; 89 % of control under setting [1]; 91 % of control under setting [2]; 109 % of control under setting [6]; 89 % of control under setting [3]; 104 % of control and 108 % of control under setting [4]. Also, the T/C under setting [7] is 116 % of control; the T/C under setting [14] was 96 % of control; the T/C under setting [5] is 90 % of control and 100 % of control.
Turning to `COc1cccc(CN2CCNCC2)c1`, the T/C runs as follows: (dose: 6.25 mg/kg/injection, schedule: Q04DX003 (ip), vehicle: water) 87 % of control; (dose: 12.5 mg/kg/injection, schedule: Q04DX003 (ip), vehicle: water) 89 % of control; under setting [16], 93 % of control; under setting [17], 101 % of control; under setting [8], 94 % of control.
Turning to `CNC(=O)OCCN(CCOC(=O)NC)C(=O)N1c2ccccc2Sc2ccccc21`, the T/C under setting [18] is 95 % of control and 107 % of control; the T/C under setting [15] is 98 % of control; the T/C under setting [6] is 98 % of control and 116 % of control; the T/C under setting [7] is 115 % of control.
Turning to `CSC(=S)N/N=C(\C)C1CCCC[N-]1.[Cl][Zn][Cl]` (centres undefined), the T/C runs as follows: (dose: 12.5 mg/kg/injection, schedule: Q01DX009 (ip), vehicle: saline with Tween-80) 105 % of control; under setting [18], 119 % of control; under setting [15], 118 % of control.

These data come from PubChem BioAssay AID328 (DTP/NCI, 2004).
